Reference: publication PMC8791944, “GLUT3 inhibitor discovery through in silico ligand screening and in vivo validation in eukaryotic expression systems” (Scientific Reports, 2022)

Target: T1, GLUT5S72Y (Homo sapiens, UniProt P22732, S72Y)
T1 construct: expressed in transfected cells; host or cells: Saccharomyces cerevisiae hxt0 strain EBY.VW4000
T1 sequence (P22732 1-501 S72Y): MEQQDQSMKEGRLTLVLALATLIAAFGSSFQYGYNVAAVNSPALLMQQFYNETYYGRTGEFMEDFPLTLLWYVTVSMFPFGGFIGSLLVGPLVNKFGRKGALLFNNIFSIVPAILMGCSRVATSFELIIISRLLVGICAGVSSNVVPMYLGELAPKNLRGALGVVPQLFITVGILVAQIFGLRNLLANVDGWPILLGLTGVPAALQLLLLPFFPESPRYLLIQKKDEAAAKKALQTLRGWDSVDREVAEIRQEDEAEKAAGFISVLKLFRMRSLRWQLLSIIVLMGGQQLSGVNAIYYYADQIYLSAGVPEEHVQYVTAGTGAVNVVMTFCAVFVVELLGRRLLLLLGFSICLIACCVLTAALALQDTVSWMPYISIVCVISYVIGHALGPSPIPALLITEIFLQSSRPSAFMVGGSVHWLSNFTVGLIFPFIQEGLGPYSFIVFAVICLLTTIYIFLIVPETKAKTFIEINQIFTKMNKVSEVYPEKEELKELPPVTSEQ
Experiment: Fructose transport assay, GLUT5S72Y expressed in hxt^0 yeast cells EBY.VW4000
Format: cell-based
Conditions: GLUT5S72Y in hxt^0 yeast cells, 10 mM fructose; read-out: IC50 for GLUT5 transport inhibition
Excerpt: The most studied GLUTs are Class 1 GLUTs (GLUT1-4) and a Class 2 GLUT, GLUT5 (a fructose-only transporter). GLUT3 sequence homology and identity is 79% and 64%, 71% and 52%, 74% and 57%, and 60% and 38% with GLUT1, GLUT2, GLUT4, and GLUT5, respectively. The hxt^0 yeast cell systems expressing functional GLUT1-4[65],[69] and GLUT5[66] allow us to determine the in vivo transport activity (substrate uptake by a GLUT into whole cells) for individual GLUTs and establish GLUT3 inhibitor selectivity for these transporters. […] Given the higher sequence similarity within Class 1 GLUTs, we expected GLUT3 inhibitors to affect Class 1 GLUTs much more than GLUT5. Indeed, G3iA-G3iF reduced the transport activities of some of the other Class 1 GLUTs (Fig. 3A–C, Table 2, Supplementary Fig. S6). […] For example, G3iB was an equipotent inhibitor of GLUT4, while G3iD and G3iE inhibited GLUT1 in a similar manner to GLUT3. […] Moreover, G3iD affected all Class 1 GLUTs, having the best relative selectivity for GLUT4.
Figure 3 Effect of GLUT3 inhibitors on GLUT1, GLUT2, GLUT4, and GLUT5. The transport activity was assayed as the substrate uptake in hexose transporter-deficient yeast cells expressing functional GLUT1[65], GLUT2[69], GLUT4[65], or GLUT5[66]. […] Transport assay was initiated by the addition of C^14-labeled substrate and stopped after 10 min (see “Materials and methods” for details). (A–D) Effect of G3iA-G3iF, at 50 µM concentration, on the relative transport activities of GLUT1 (A), GLUT2 (B), GLUT4 (C), and GLUT5 (D). Standard deviations for experimental points come from at least three independent measurements.
The plasmids containing functional constructs of GLUT1-5 were transformed in the corresponding hxt^0 strains[65],[66],[73] (EBY.VW4000 for GLUT5S72Y, EBY.S7 for GLUT1, GLUT2∆loopS_Q455R, GLUT3 and GLUT3S66Y, and SDY.022 for GLUT4) and grown on 2% (w/v) agar plates of the respective media supplemented with 1% (w/v) maltose. An initial culture of ~ 10 ml was started with a few colonies and grown for 2–3 days if the media was SC-uracil with 1% (w/v) maltose (GLUT1, GLUT3, GLUT4) or 1–2 days if the media was YEP with 1% (w/v) maltose and 100 µg/ml geneticin G418 (GLUT2∆loopS_Q455R and GLUT5S72Y). […] Then, cells were transferred in the same media so that OD600nm ~ 0.5 and grown further for 1–2 days.
For transport activity assay, cells in the hexose media were centrifuged (1000×g, 5 min, room temperature), washed once with PBS buffer (10 mM Na2HPO4, 1.8 mM KH2PO4, 2.7 mM KCl, 137 mM NaCl, pH 7.4), and resuspended in PBS buffer at an OD600nm ~ 10; each assay contained 100 µl of this cell solution. […] Substrate uptake into cells was linear for more than 20 min. […] The filtration membranes were transferred into scintillation vials with 10 ml of Scintillation Solution (BioSafeII; Research Products International, Mount Prospect, IL, USA), and vortexed briefly. The radioactivity was determined with a scintillation counter (Tri-carb 2900TR, Perkin Elmer, USA). As all compounds were solubilized in dimethyl sulfoxide (DMSO), controls for determining the relative transport activity included 1% (v/v) DMSO to represent DMSO used as vehicle control (i.e., 100% activity), and known inhibitors at saturating concentrations, 200 µM phloretin for GLUT1-4[69],[82], and 100 µM N-[4-(methylsulfonyl)-2-nitrophenyl]-1,3-benzodioxol-5-amine (MSNBA) for GLUT5 (i.e., complete inhibition). […] Data were analyzed with GraphPad Prism (San Diego, CA, USA).

SMILES	IC50 [µM]
CC(=O)Nc1ccc(S(=O)(=O)Nc2ccc(Nc3cc(N(C)C)nc(C)n3)cc2)cc1 [G3iA, N-(4-{[(4-{[6-(dimethylamino)-2-methylpyrimidin-4-yl]amino}phenyl)amino]sulfonyl}phenyl)acetamide]	> 50
Cc1cccnc1OC1CCN(c2cc(N3CCCC3CO)ncn2)CC1 (stereo not drawn) [G3iC]	> 50
Cc1cc(NC(=O)CCC2Cc3ccccc3NC2=O)nc(-c2ccccc2)n1 (stereo not drawn) [G3iD]	> 50
O=C(Nc1cccc(Cl)c1)c1cccc(NC(=O)c2cccc([N+](=O)[O-])c2)c1 [G3iE, N-{3-[(3-chloroanilino)carbonyl]phenyl}-3-nitrobenzamide]	> 50
COc1ccccc1-n1c(/C=C/c2ccc(O)cc2)nc2ccc(Br)cc2c1=O [G3iB, 6-bromo-2-[(E)-2-(4-hydroxyphenyl)ethenyl]-3-(2-methoxyphenyl)quinazolin-4(3H)-one]	> 50
Cc1ccccc1CN(Cc1nnc(C(C)(C)C)o1)c1ccc2nc(O)[nH]c2c1 [G3iF]	> 50
